The values below come from PMC3106415 (Bioorganic & medicinal chemistry, 2010).

Structures are written as SMILES.

In one experiment the target is rat A2A AR (Rattus norvegicus, UniProt P30543). Briefly: Radioligand binding to rA2A AR.
In another experiment the target is rA2A receptor. The following applies: read-out: Ki at rA2A receptor; cited from earlier work.

By Ki is commonly meant the dissociation constant of the complex between target and ligand, obtained from inhibition or displacement.

Sequence of rat A2A AR (P30543 whole entry): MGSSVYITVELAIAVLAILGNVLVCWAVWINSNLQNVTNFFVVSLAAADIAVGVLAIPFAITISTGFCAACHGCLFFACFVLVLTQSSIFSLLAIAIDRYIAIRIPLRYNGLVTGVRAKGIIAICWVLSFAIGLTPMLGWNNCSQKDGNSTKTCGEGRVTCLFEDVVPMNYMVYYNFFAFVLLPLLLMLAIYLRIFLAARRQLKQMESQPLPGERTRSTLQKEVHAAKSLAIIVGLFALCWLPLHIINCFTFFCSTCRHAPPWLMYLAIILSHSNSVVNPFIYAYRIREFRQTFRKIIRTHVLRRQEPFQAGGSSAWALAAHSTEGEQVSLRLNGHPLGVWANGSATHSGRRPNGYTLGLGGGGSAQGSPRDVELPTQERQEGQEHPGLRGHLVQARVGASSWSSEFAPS

For the compound `CCCCCC(=O)Nc1nc(SC)nc2nc(-c3ccco3)nn12` [Compound 11, 2-(2-Furyl)-5-methylthio-7-n-pentylcarbonylamino-[1,2,4]-triazolo[1,5-a]-[1,3,5]triazine], the Ki at rat A2A AR lay in the range of 180 to 400 nM.
`Nc1nc(NCCc2ccc(O)cc2)nc2nc(-c3ccco3)nn12` [ZM241385, 4-(2-[7-amino-2-{2-furyl}{1,2,4}triazolo{2,3-a}{1,3,5,}triazin-5-ylamino]ethyl)phenol]: the Ki at rA2A receptor was 0.21 to 0.5 nM.
